The target in assay [1] is 25P Btk enzyme (un-activated full-length Btk) (Homo sapiens (Human), UniProt Q06187). The assay can be described thus: 25P Btk Enzyme Activity Assay (LANCE TR-FRET). The format is biochemical. Particulars: un-activated Btk (25P), 25 μM ATP, 60 minute compound and enzyme incubation; read-out: Btk binding IC50 (nM) with 25 P. On the procedure:
Preparation of Un-Activated Btk Enzyme (25P Btk)
Un-activated full-length Btk recombinant protein was purified from baculovirus-transfected Sf21 cells. […] This protein represents the un-activated state of the Btk enzyme.
25P Btk Enzyme Activity Assay
Btk enzymatic activity was determined with the LANCE (Lanthanide Chelate Excite) TR-FRET (lime-resolved fluorescence resonance energy transfer) assay. […] To each well of a black non-binding surface Corning 384-well microplate (Corning Catalog #3820), 5 nL of compound (2000 fold dilution in final assay volume of 10 μL) was dispensed, followed by the addition of 7.5 μL of 1× kinase buffer (50 mM Hepes 7.5, 10 mM MgCl2, 0.01% Brij-35, 1 mM EGTA, 0.05% BSA and 1 mM DTT) containing 26.67 pg/μL (266.7 pM) of 25P Btk enzyme (recombinant protein from baculovirus-transfected Sf9 cells: full-length Btk; MW=79378 Da). Following a 60 minute compound and enzyme incubation, each reaction was initiated by the addition of 2.5 μL 1× kinase buffer containing 8 μM biotinylated “A5” peptide (Biotin-EQEDEPEGDYFEWLE-NH2), and 100 μM ATP. The final reaction in each well of 10 consists of 200 pM 25P Btk, 2 μM biotin-A5-peptide, and 25 μM ATP. Phosphorylation reactions were allowed to proceed for 120 minutes. Reactions were immediately quenched by the addition of 20 uL of 1× quench buffer (15 mM EDTA, 25 mM Hepes 7.3, and 0.1% Triton X-100) containing detection reagents (0.626 nM of LANCE-Eu-W1024-anti-phosphoTyrosine antibody, PerkinElmer and 86.8 nM of Streptavidin-conjugated Dylight 650, Dyomics/ThermoFisher Scientific). After 60 minutes incubation with detection reagents, reaction plates were read on a PerkinElmer EnVision plate reader using standard TR-FRET protocol. Briefly, excitation of donor molecules (Eu-chelate:anti-phospho-antibody) with a laser light source at 337 nm produces energy that can be transferred to Dylight-650 acceptor molecules if this donor:acceptor pair is within close proximity. Fluorescence intensity at both 665 nm (acceptor) and 615 nm (donor) are measured and a TR-FRET ratio calculated for each well (acceptor intensity/donor intensity). IC50 values were determined by 4 parameter robust fit of TR-FRET ratio values vs. (Log10) compound concentrations.

Assay [2] addresses 100P Btk enzyme (activated full-length Btk) (Homo sapiens (Human), UniProt Q06187). The assay can be described thus: 100P Btk Enzyme Activity Assay (LANCE TR-FRET). Type of assay: biochemical. Particulars: activated Btk (100P), 25 μM ATP, 60 minute compound and enzyme incubation; top concentration 1000 nM; read-out: Btk binding IC50 (nM) with 100 P. On the procedure:
Activated full-length Btk recombinant enzyme was expressed and purified in the same manner as the […] enzyme, except an auto-phosphorylation step was added to the purification scheme. […] This protein represents the activated state of the Btk enzyme. […] Btk Enzyme Activity Assay Btk enzymatic activity was determined with the LANCE (Lanthanide Chelate Excite) TR-FRET (lime-resolved fluorescence resonance energy transfer) assay. […] MW=79378 Da). […] Phosphorylation reactions were allowed to proceed for 45 minutes. […] After 60 minutes incubation with detection reagents, reaction plates were read on a PerkinElmer EnVision plate reader using standard TR-FRET protocol. Briefly, excitation of donor molecules (Eu-chelate:anti-phospho-antibody) with a laser light source at 337 nm produces energy that can be transferred to Dylight-650 acceptor molecules if this donor:acceptor pair is within close proximity. Fluorescence intensity at both 665 nm (acceptor) and 615 nm (donor) are measured and a TR-FRET ratio calculated for each well (acceptor intensity/donor intensity). […] (Log10) compound concentrations.

SMILES strings stand for the structures.

Chain of 100P Btk enzyme (activated full-length Btk) (Q06187 whole entry): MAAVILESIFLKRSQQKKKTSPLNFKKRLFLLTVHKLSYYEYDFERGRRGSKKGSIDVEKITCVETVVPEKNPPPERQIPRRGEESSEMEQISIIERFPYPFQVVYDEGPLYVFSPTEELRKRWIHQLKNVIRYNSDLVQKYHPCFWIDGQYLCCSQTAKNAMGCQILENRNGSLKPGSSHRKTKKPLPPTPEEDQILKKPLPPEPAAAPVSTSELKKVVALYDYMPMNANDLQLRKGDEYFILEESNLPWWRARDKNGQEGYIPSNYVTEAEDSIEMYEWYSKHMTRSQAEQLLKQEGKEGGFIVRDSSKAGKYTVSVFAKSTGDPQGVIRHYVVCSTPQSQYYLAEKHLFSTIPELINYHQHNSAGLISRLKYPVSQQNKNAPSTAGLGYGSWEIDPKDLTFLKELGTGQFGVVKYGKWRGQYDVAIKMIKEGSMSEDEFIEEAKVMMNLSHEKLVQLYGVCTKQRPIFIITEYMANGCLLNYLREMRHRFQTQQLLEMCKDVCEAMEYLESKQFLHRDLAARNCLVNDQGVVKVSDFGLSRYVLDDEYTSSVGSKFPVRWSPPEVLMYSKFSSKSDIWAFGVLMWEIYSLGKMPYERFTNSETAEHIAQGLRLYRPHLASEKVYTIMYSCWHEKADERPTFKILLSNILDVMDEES
Chain of 25P Btk enzyme (un-activated full-length Btk) (Q06187 whole entry): as above

The term IC50 denotes the midpoint of a concentration-inhibition curve. Consider `CC(C)(C)c1cc(F)c2c(=O)n(-c3cccc(-c4cc(C(=O)O)c5[nH]nc(N)c5c4)c3CO)ncc2c1` [Example 1, 3-amino-5-[3-(6-tert-butyl-8-fluoro-1-oxophthalazin-2(1H)-yl)-2-(hydroxymethyl)phenyl]-1H-indazole-7-carboxylic acid], for which the results for the 50% inhibitory concentration (IC50) in assay [1] and in assay [2] were 0.14 nM and 112 nM, respectively.
Take `Cc1cc2[nH]nc(N)c2cc1-c1cccc(-n2ncc3cc(C(C)(C)C)cc(F)c3c2=O)c1CO` [Example 2, 2-[3-(3-amino-6-methyl-1H-indazol-5-yl)-2-(hydroxymethyl)phenyl]-6-tert-butyl-8-fluorophthalazin-1(2H)-one]: the concentration for half-maximal inhibition (IC50) in assay [1] was 10.9 nM; in assay [2], 341 nM.
As to `CC(C)(C)c1cc(F)c2c(=O)n(-c3cccc(-c4cc(C(N)=O)c5[nH]nc(N)c5c4)c3CO)ncc2c1` [Example 3, 3-amino-5-[3-(6-tert-butyl-8-fluoro-1-oxophthalazin-2(1H)-yl)-2-(hydroxymethyl)phenyl]-1H-indazole-7-carboxamide], the results for the IC50 in assay [1] and in assay [2] were 0.16 nM and 16 nM, respectively.
For the molecule `CC(C)(C)c1cc(F)c2c(=O)n(-c3cccc(-c4cc(C(F)(F)F)c5[nH]nc(N)c5c4)c3CO)ncc2c1` [Example 4, 2-{3-[3-amino-7-(trifluoromethyl)-1H-indazol-5-yl]-2-(hydroxymethyl)phenyl}-6-tert-butyl-8-fluorophthalazin-1(2H)-one], the IC50 in assay [1] is 38.6 nM.
On to `Cn1nc(N)c2cc(-c3cccc(-n4ncc5cc(C(C)(C)C)cc(F)c5c4=O)c3CO)cc(C(N)=O)c21` [Example 5, 3-amino-5-[3-(6-tert-butyl-8-fluoro-1-oxophthalazin-2 (1H)-yl)-2-(hydroxymethyl)phenyl]-1-methyl-1H-indazole-7-carboxamide], for which the IC50 in assay [1] is 47.3 nM.
For the molecule `CC(C)n1cc(-c2cc(-c3cccc(-n4ncc5cc(C(C)(C)C)cc(F)c5c4=O)c3CO)cc3c(N)n[nH]c23)cn1` [Example 6, 2-[3-{3-amino-7-[1-(1-methylethyl)-1H-pyrazol-4-yl]-1H-indazol-5-yl}-2-(hydroxymethyl)phenyl]-6-tert-butyl-8-fluorophthalazin-1(2H)-one], the values for the IC50 in assay [1] and in assay [2] were 0.15 nM and 3.8 nM, respectively.
Turning to `Cc1c(NC(=O)c2ccc(C(C)(C)C)cc2F)cccc1-c1cc(C(N)=O)c2[nH]nc(N)c2c1` [Example 7, 3-amino-5-(3-{[(4-tert-butyl-2-fluorophenyl)carbonyl]amino}-2-methylphenyl)-1H-indazole-7-carboxamide], in assay [1], the IC50 was determined as 64.5 nM.
For `Cc1c(NC(=O)c2ccc(C(C)(C)C(F)(F)F)cc2F)cccc1-c1cc(C(N)=O)c2[nH]nc(N)c2c1` [Example 8, 3-amino-5-[3-({[2-fluoro-4-(2,2,2-trifluoro-1,1-dimethylethyl)phenyl]carbonyl}amino)-2-methylphenyl]-1H-indazole-7-carboxamide], in assay [1], the IC50 was 268 nM.
Consider `Cn1cc(-c2cc(-c3cccc(-n4ncc5cc(C(C)(C)C)cc(F)c5c4=O)c3CO)cc3c(N)n[nH]c23)cn1` [Example 9, 2-{3-[3-amino-7-(1-methyl-1H-pyrazol-4-yl)-1H-indazol-5-yl]-2-(hydroxymethyl)phenyl}-6-tert-butyl-8-fluorophthalazin-1(2H)-one], for which the IC50 in assay [1] amounted to 0.073 nM; in assay [2], 5.3 nM.
For `CC(C)(C)c1cc(F)c2c(=O)n(-c3cccc(-c4cc(-c5cccnc5)c5[nH]nc(N)c5c4)c3CO)ncc2c1` [Example 10, 2-[3-(3-amino-7-pyridin-3-yl-1H-indazol-5-yl)-2-(hydroxymethyl)phenyl]-6-tert-butyl-8-fluorophthalazin-1(2H)-one] the same measures were 0.8 nM and 299 nM.
Take `CNC(=O)c1cc(-c2cccc(-n3ncc4cc(C(C)(C)C)cc(F)c4c3=O)c2CO)cc2c(N)n[nH]c12` [Example 11, 3-amino-5-[3-(6-tert-butyl-8-fluoro-1-oxophthalazin-2(1H)-yl)-2-(hydroxymethyl)phenyl]-N-methyl-1H-indazole-7-carboxamide]: the IC50 stood at 0.16 nM in assay [1] and 29.3 nM in assay [2].
As to `CC(C)(C)c1cc(F)c2c(=O)n(-c3cccc(-c4ccc5c(c4)c(N)nn5Cc4ccncc4)c3CO)ncc2c1` [Example 12, 2-{3-[3-amino-1-(pyridin-4-ylmethyl)-1H-indazol-5-yl]-2-(hydroxymethyl)phenyl}-6-tert-butyl-8-fluorophthalazin-1(2H)-one], in assay [1], the IC50 was 29.6 nM.
In the case of `Cc1c(NC(=O)c2ccc(C(C)(C)C)cc2)cccc1-c1cc(-c2cnn(C)c2)c2[nH]nc(N)c2c1` [Example 13, N-{3-[3-amino-7-(1-methyl-1H-pyrazol-4-yl)-1H-indazol-5-yl]-2-methylphenyl}-4-tert-butylbenzamide], the half-maximal inhibitory concentration (IC50) in assay [1] worked out at 16.7 nM.
For the molecule `CC(C)(C)c1cc(F)c2c(=O)n(-c3cccc(-c4cc(C(=O)N5CCOCC5)c5[nH]nc(N)c5c4)c3CO)ncc2c1` [Example 14, 2-{3-[3-amino-7-(morpholin-4-ylcarbonyl)-1H-indazol-5-yl]-2-(hydroxymethyl)phenyl}-6-tert-butyl-8-fluorophthalazin-1(2H)-one], in assay [1], the IC50 worked out at 173 nM.
In the case of `CC(C)(C)c1cc(F)c2c(c1)CCN(c1cccc(-c3cc(C(N)=O)c4[nH]nc(N)c4c3)c1CO)C2=O` [Example 16, 3-amino-5-[3-(6-tert-butyl-8-fluoro-1-oxo-3,4-dihydroisoquinolin-2(1H)-yl)-2-(hydroxymethyl)phenyl]-1H-indazole-7-carboxamide], the values for the IC50 in assay [1] and in assay [2] were 0.49 nM and 145 nM, respectively.
With `CC(C)n1ccc(-c2cc(-c3cccc(-n4ncc5cc(C(C)(C)C)cc(F)c5c4=O)c3CO)cc3c(N)n[nH]c23)n1` [Example 17, 2-[3-{3-amino-7-[1(1-methylethyl)-1H-pyrazol-3-yl]-1H-indazol-5-yl}-2-(hydroxymethyl)phenyl]-6-tert-butyl-8-fluorophthalazin-1(2H)-one], the IC50 turned out to be 0.16 nM in assay [1] and 13 nM in assay [2].
With `Cn1cc(-c2cc(-c3cccc(NC(=O)c4cc5c(s4)CCCC5)c3CO)cc3c(N)n[nH]c23)cn1` [Example 18, N-{3-[3-amino-7-(1-methyl-1H-pyrazol-4-yl)-1H-indazol-5-yl]-2-(hydroxymethyl)phenyl}-4,5,6,7-tetrahydro-1-benzothiophene-2-carboxamide], the values for the IC50 in assay [1] and in assay [2] were 0.13 nM and 11.6 nM, respectively.
As to `CC(C)(C)c1cc(F)c2c(=O)n(-c3cccc(-c4cc(-c5ccccc5)c5[nH]nc(N)c5c4)c3CO)ncc2c1` [Example 19, 2-[3-(3-amino-7-phenyl-1H-indazol-5-yl)-2-(hydroxymethyl)phenyl]-6-tert-butyl-8-fluorophthalazin-1(2H)-one], the IC50 in assay [1] came to 0.48 nM; in assay [2] it was 429 nM.
Take `CC(C)(C)c1cc(F)c2c(=O)n(-c3cccc(-c4ccc5[nH]nc(N)c5n4)c3CO)ncc2c1` [Example 20, 2-[3-(3-amino-1H-pyrazolo[4,3-b]pyridin-5-yl)-2-(hydroxymethyl)phenyl]-6-tert-butyl-8-fluorophthalazin-1(2H)-one]: the IC50 in assay [1] was 7.7 nM.
With `CC(C)(C)c1cc(F)c2c(=O)n(-c3cccc(-c4cc5c(N)n[nH]c5cn4)c3CO)ncc2c1` [Example 21, 2-[3-(3-amino-1H-pyrazolo[3,4-c]pyridin-5-yl)-2-(hydroxymethyl)phenyl]-6-tert-butyl-8-fluorophthalazin-1(2H)-one], the IC50 in assay [1] amounted to 9.5 nM; in assay [2] it was 801 nM.
